This is an account of results in ChEMBL document CHEMBL1806461, “Identification of MK-5710 ((8aS)-8a-methyl-1,3-dioxo-2-[(1S,2R)-2-phenylcyclopropyl]-N-(1-phenyl-1H-pyrazol-5-yl)hexahydroimid azo[1,5-a]pyrazine-7(1H)-carboxamide), a potent smoothened antagonist for use in Hedgehog pathway dependent malignancies, part 1” (Bioorg Med Chem Lett, 2011).

pIC50: −log10 of the molar value. The source made the active and inactive calls. The calls are words filed in the database; no cut-off is given here.

The target of series [1] is T1, Protein smoothened (Homo sapiens, UniProt Q99835). As to the kind of experiment: Displacement of [125I]-PA cyclopamine from smoothened expressed in african green monkey COS-1 cells after 10 mins by autoradiography. The class given is cell-based. A general note: Loss of bound radioactivity is the signal in a displacement assay; it reports binding, not function.
A further series deals with Shh Light II. As to the kind of experiment: Cytotoxicity against mouse Shh Light2 cells assessed as cell viability at 2.5 uM. The series is classed as cell-based.
The target of series [2] is T1, Protein smoothened. Particulars: Shh Light II; 2 uM.
Description: Antagonist activity at smoothened expressed in mouse Shh Light2 cells co-expressing Gli-dependent reporter gene assessed as inhibition of Hh pathway at 2 uM
Series [3] in a line: Intrinsic clearance in rat liver microsomes assessed per mg of protein. The series is classed as ADME, Microsome. (Liver microsomes are a subcellular fraction often used to study metabolism.)
Series [4] can be described thus: Growth inhibition of Ptch +/- mouse medulloblastoma cells. The series is classed as functional. As to conditions: Medulloblastoma cell.

T1 sequence (Q99835 whole entry): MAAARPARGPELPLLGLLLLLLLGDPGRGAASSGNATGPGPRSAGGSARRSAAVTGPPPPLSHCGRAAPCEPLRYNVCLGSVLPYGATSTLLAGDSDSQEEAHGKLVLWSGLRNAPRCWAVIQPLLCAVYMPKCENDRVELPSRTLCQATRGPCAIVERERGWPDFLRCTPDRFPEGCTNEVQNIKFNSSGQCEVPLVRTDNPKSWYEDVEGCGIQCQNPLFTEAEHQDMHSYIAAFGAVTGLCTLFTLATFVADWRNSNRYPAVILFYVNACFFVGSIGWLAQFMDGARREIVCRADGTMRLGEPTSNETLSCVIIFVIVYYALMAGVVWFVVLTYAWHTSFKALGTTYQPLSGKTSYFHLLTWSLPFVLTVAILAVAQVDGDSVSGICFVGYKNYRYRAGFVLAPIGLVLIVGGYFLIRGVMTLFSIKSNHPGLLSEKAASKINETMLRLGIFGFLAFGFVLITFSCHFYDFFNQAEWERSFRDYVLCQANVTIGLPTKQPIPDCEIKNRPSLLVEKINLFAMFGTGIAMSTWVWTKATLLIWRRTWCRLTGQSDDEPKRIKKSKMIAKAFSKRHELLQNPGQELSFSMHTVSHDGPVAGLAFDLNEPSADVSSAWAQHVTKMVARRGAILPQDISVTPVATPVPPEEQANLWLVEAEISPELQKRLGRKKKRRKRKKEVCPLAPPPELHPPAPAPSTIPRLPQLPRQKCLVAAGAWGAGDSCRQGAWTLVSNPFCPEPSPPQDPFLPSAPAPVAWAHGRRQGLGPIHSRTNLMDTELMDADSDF

On Protein smoothened [1], `O=C(Nc1ccccc1-c1ccccc1)c1ccc2c(c1)C(=O)N([C@H]1C[C@@H]1c1ccccc1)C2=O` gave a pIC50 of 5.49.

Take `O=C(Nc1ccccc1-c1ccsc1)N1CCN2C(=O)N([C@H]3C[C@@H]3c3ccccc3)C(=O)C2C1` (mixture of isomers): the pIC50 on Protein smoothened [1] is 6.66.

On Protein smoothened [1], `O=C(Nc1ccccc1-c1cnco1)N1CCN2C(=O)N([C@H]3C[C@@H]3c3ccccc3)C(=O)C2C1` (mixture of isomers) had a pIC50 of 5.74.

Regarding `O=C(Nc1cccnc1-c1ccccc1)N1CCN2C(=O)N([C@H]3C[C@@H]3c3ccccc3)C(=O)C2C1` (mixture of isomers), the pIC50 on Protein smoothened [1] is 7.92.

At Protein smoothened [1], `O=C(Nc1ccncc1-c1ccccc1)N1CCN2C(=O)N([C@H]3C[C@@H]3c3ccccc3)C(=O)C2C1` (mixture of isomers) showed a pIC50 of 7.06.

In turn, `O=C(Nc1cccnc1-c1ccc(Cl)cc1)N1CCN2C(=O)N([C@H]3C[C@@H]3c3ccccc3)C(=O)C2C1` (mixture of isomers) gave a pIC50 on Protein smoothened [1] of 6.17.

Regarding `O=C(Nc1cccnc1-c1cccc(Cl)c1)N1CCN2C(=O)N([C@H]3C[C@@H]3c3ccccc3)C(=O)C2C1` (mixture of isomers), on Protein smoothened [1], the pIC50 was 7.72.

At Protein smoothened [1], `O=C(Nc1cccnc1-c1ccccc1Cl)N1CCN2C(=O)N([C@H]3C[C@@H]3c3ccccc3)C(=O)C2C1` (mixture of isomers) gave a pIC50 of 6.85.

Compound `O=C(Nc1cccnc1-c1cccc(C(F)(F)F)c1)N1CCN2C(=O)N([C@H]3C[C@@H]3c3ccccc3)C(=O)C2C1` (mixture of isomers) gave a pIC50 at Protein smoothened [1] of 6.80.

As to `COc1cccc(-c2ncccc2NC(=O)N2CCN3C(=O)N([C@H]4C[C@@H]4c4ccccc4)C(=O)C3C2)c1` (mixture of isomers), the pIC50 on Protein smoothened [1] is 7.33.

`O=C(Nc1cccnc1-c1ccsc1)N1CCN2C(=O)N([C@H]3C[C@@H]3c3ccccc3)C(=O)C2C1` (mixture of isomers) gave a pIC50 on Protein smoothened [1] of 7.06.

At Protein smoothened [1], `Cn1cc(-c2ncccc2NC(=O)N2CCN3C(=O)N([C@H]4C[C@@H]4c4ccccc4)C(=O)C3C2)cn1` (mixture of isomers) showed a pIC50 of 6.21.

Take `O=C(Nc1ccnn1-c1ccccc1)N1CCN2C(=O)N([C@H]3C[C@@H]3c3ccccc3)C(=O)C2C1` (mixture of isomers): the pIC50 on Protein smoothened [1] is 7.89.

The compound `O=C(Nc1ccccc1-c1ccccc1)N1CCN2C(=O)N([C@H]3C[C@@H]3c3ccccc3)CC2C1` (mixture of isomers) had a pIC50 on Protein smoothened [1] of 5.85.

On Protein smoothened [1], `O=C(Nc1ccnn1-c1ccccc1)N1CCN2C(=O)N([C@H]3C[C@@H]3c3ccccc3)C(=O)CC2C1` (mixture of isomers) gave a pIC50 of 5.11.

For the compound `O=C(Nc1ccnn1-c1ccccc1)N1CCN2CC(=O)N([C@H]3C[C@@H]3c3ccccc3)C(=O)C2C1` (mixture of isomers), the pIC50 on Protein smoothened [1] was 5.29.

Compound `COC(=O)N1CCN2C(=O)N([C@H]3C[C@@H]3c3ccccc3)C(=O)C2C1` (mixture of isomers) gave a pIC50 at Protein smoothened [1] of less than 5.82.

As to `CC(=O)N1CCN2C(=O)N([C@H]3C[C@@H]3c3ccccc3)C(=O)C2C1` (mixture of isomers), the pIC50 at Protein smoothened [1] was less than 5.82.

In turn, `O=C(C1CCCCC1)N1CCN2C(=O)N([C@H]3C[C@@H]3c3ccccc3)C(=O)C2C1` (mixture of isomers) gave a pIC50 on Protein smoothened [1] of less than 5.82.

The compound `CC(C)(C)C(=O)N1CCN2C(=O)N([C@H]3C[C@@H]3c3ccccc3)C(=O)C2C1` (mixture of isomers) had a pIC50 at Protein smoothened [1] of 5.40.

For the compound `O=C1C2CN(CC3CCCCC3)CCN2C(=O)N1[C@H]1C[C@@H]1c1ccccc1` (mixture of isomers), the pIC50 at Protein smoothened [1] is less than 5.60.

In the case of `CN(C)C(=O)N1CCN2C(=O)N([C@H]3C[C@@H]3c3ccccc3)C(=O)C2C1` (mixture of isomers), the Activity result in the series with Shh Light II is “Non-toxic”. The compound also gave a pIC50 at Protein smoothened [1] of less than 5.60. For the same compound, the inhibition entry on Protein smoothened [2] was “Active”.

As to `O=C(NCc1ccco1)N1CCN2C(=O)N([C@H]3C[C@@H]3c3ccccc3)C(=O)C2C1` (mixture of isomers), the pIC50 at Protein smoothened [1] is less than 5.60.

As to `O=C(NC1CCCCC1)N1CCN2C(=O)N([C@H]3C[C@@H]3c3ccccc3)C(=O)C2C1` (mixture of isomers), the pIC50 on Protein smoothened [1] was 6.60.

In turn, `CCCCCCNC(=O)N1CCN2C(=O)N([C@H]3C[C@@H]3c3ccccc3)C(=O)C2C1` (mixture of isomers) had a pIC50 at Protein smoothened [1] of 6.42.

As to `CCCCN(CCCC)C(=O)N1CCN2C(=O)N([C@H]3C[C@@H]3c3ccccc3)C(=O)C2C1` (mixture of isomers), the pIC50 at Protein smoothened [1] was 6.04.

Take `O=C(Nc1cccc(Cl)c1Cl)N1CCN2C(=O)N([C@H]3C[C@@H]3c3ccccc3)C(=O)C2C1` (mixture of isomers): the intrinsic metabolic clearance (microsomal CLint) in series [3] turned out to be 180 µL/min/mg. The compound further yielded a CC50 in series [4] of 3.3 nM. For the same compound, the pIC50 at Protein smoothened [1] was 6.66.

At Protein smoothened [1], `O=C(Nc1cc(Cl)cc(Cl)c1)N1CCN2C(=O)N([C@H]3C[C@@H]3c3ccccc3)C(=O)C2C1` (mixture of isomers) showed a pIC50 of 6.55.

With `O=C(Nc1c(Cl)cccc1Cl)N1CCN2C(=O)N([C@H]3C[C@@H]3c3ccccc3)C(=O)C2C1` (mixture of isomers), the pIC50 at Protein smoothened [1] was 6.55.

Turning to `O=C(Nc1ccc(F)cc1Cl)N1CCN2C(=O)N([C@H]3C[C@@H]3c3ccccc3)C(=O)C2C1` (mixture of isomers), at Protein smoothened [1], the pIC50 is 5.96.

On Protein smoothened [1], `O=C(Nc1ccc2c(c1)OCO2)N1CCN2C(=O)N([C@H]3C[C@@H]3c3ccccc3)C(=O)C2C1` (mixture of isomers) gave a pIC50 of 6.15.

In series [3], `O=C(Nc1ccccc1-c1ccccc1)N1CCN2C(=O)N([C@H]3C[C@@H]3c3ccccc3)C(=O)C2C1` (mixture of isomers) yielded a microsomal CLint of more than 300 µL/min/mg. In series [4], this compound gave a CC50 of 12 nM. The pIC50 at Protein smoothened [1] was 7.03.

Regarding `CN(C(=O)N1CCN2C(=O)N([C@H]3C[C@@H]3c3ccccc3)C(=O)C2C1)c1ccccc1-c1ccccc1` (mixture of isomers), the pIC50 at Protein smoothened [1] was 6.00.

Consider `O=C(Nc1ccc(-c2ccccc2)cc1)N1CCN2C(=O)N([C@H]3C[C@@H]3c3ccccc3)C(=O)C2C1` (mixture of isomers), for which the pIC50 on Protein smoothened [1] is 6.05.

`O=C(Nc1ccccc1-c1ccccc1)N1CCN2C(=O)N([C@H]3C[C@H]3c3ccccc3)C(=O)C2C1` (mixture of isomers) gave a pIC50 on Protein smoothened [1] of less than 5.60.

On Protein smoothened [1], `COC(=O)c1cccc(NC(=O)N2CCN3C(=O)N([C@H]4C[C@@H]4c4ccccc4)C(=O)C3C2)c1Cl` (mixture of isomers) had a pIC50 of 5.96.

With `Cc1c(Cl)cccc1NC(=O)N1CCN2C(=O)N([C@H]3C[C@@H]3c3ccccc3)C(=O)C2C1` (mixture of isomers), the pIC50 on Protein smoothened [1] is 6.34.

In the case of `Cc1cccc(Cl)c1NC(=O)N1CCN2C(=O)N([C@H]3C[C@@H]3c3ccccc3)C(=O)C2C1` (mixture of isomers), the negative logarithm of the IC50 (pIC50) at Protein smoothened [1] was 6.11.

Take `O=C(Nc1ccc(F)c(Cl)c1Cl)N1CCN2C(=O)N([C@H]3C[C@@H]3c3ccccc3)C(=O)C2C1` (mixture of isomers): the pIC50 on Protein smoothened [1] is 6.32.

For the compound `O=C(Nc1c(Cl)cc(F)cc1Cl)N1CCN2C(=O)N([C@H]3C[C@@H]3c3ccccc3)C(=O)C2C1` (mixture of isomers), at Protein smoothened [1], the pIC50 is 6.51.

Consider `O=C(Nc1c(Cl)cc(OC(F)(F)F)cc1Cl)N1CCN2C(=O)N([C@H]3C[C@@H]3c3ccccc3)C(=O)C2C1` (mixture of isomers), for which, on Protein smoothened [1], the pIC50 is 6.89.

Compound `O=C(Nc1c(Cl)cc(C(F)(F)F)cc1Cl)N1CCN2C(=O)N([C@H]3C[C@@H]3c3ccccc3)C(=O)C2C1` (mixture of isomers) showed a negative-log IC50 (pIC50) on Protein smoothened [1] of 6.55.

On to `CS(=O)(=O)c1cc(Cl)c(NC(=O)N2CCN3C(=O)N([C@H]4C[C@@H]4c4ccccc4)C(=O)C3C2)c(Cl)c1` (mixture of isomers), for which, on Protein smoothened [1], the negative logarithm of the IC50 (pIC50) is 7.11.

With `N#Cc1cc(Cl)c(NC(=O)N2CCN3C(=O)N([C@H]4C[C@@H]4c4ccccc4)C(=O)C3C2)c(Cl)c1` (mixture of isomers), the pIC50 at Protein smoothened [1] was 7.21.

Compound `Cc1cc(C#N)cc(Cl)c1NC(=O)N1CCN2C(=O)N([C@H]3C[C@@H]3c3ccccc3)C(=O)C2C1` (mixture of isomers) showed a pIC50 at Protein smoothened [1] of 7.08.

With `CC(C)c1ccccc1NC(=O)N1CCN2C(=O)N([C@H]3C[C@@H]3c3ccccc3)C(=O)C2C1` (mixture of isomers), the pIC50 at Protein smoothened [1] is 6.68.

As for `O=C(Nc1ccccc1C(F)(F)F)N1CCN2C(=O)N([C@H]3C[C@@H]3c3ccccc3)C(=O)C2C1` (mixture of isomers), the pIC50 at Protein smoothened [1] is 6.05.

With `N#Cc1ccccc1NC(=O)N1CCN2C(=O)N([C@H]3C[C@@H]3c3ccccc3)C(=O)C2C1` (mixture of isomers), the pIC50 at Protein smoothened [1] was less than 5.60.

`COc1ccccc1NC(=O)N1CCN2C(=O)N([C@H]3C[C@@H]3c3ccccc3)C(=O)C2C1` (mixture of isomers) gave a pIC50 on Protein smoothened [1] of 5.77.

As to `O=C(Nc1ccccc1-c1ccccc1)N1CCN2C(=O)N(CCc3ccccc3)C(=O)C2C1` (racemic), the pIC50 on Protein smoothened [1] is 5.70.

As to `O=C(Nc1ccccc1-c1ccccc1)N1CCN2C(=O)N(Cc3ccccc3)C(=O)C2C1` (racemic), the pIC50 on Protein smoothened [1] is less than 5.60.

As to `O=C(Nc1ccccc1-c1ccccc1)N1CCN2C(=O)N(c3cccc4ccccc34)C(=O)C2C1` (racemic), the pIC50 on Protein smoothened [1] is less than 5.60.

Consider `O=C(Nc1ccccc1-c1ccccc1)N1CCN2C(=O)N(c3cccc(-c4ccccc4)c3)C(=O)C2C1` (racemic), for which the pIC50 on Protein smoothened [1] was less than 5.60.

The compound `CCCCN1C(=O)C2CN(C(=O)Nc3ccccc3-c3ccccc3)CCN2C1=O` (racemic) gave a pIC50 at Protein smoothened [1] of less than 5.60.

Take `O=C(Nc1ccccc1-c1ccccc1)N1CCN2C(=O)N(C3CC34CCCCC4)C(=O)C2C1` (racemic): the pIC50 on Protein smoothened [1] is less than 5.60.

The compound `O=C(Nc1ccccc1-c1ccccc1)N1CCN2C(=O)N([C@H]3C[C@H](c4ccccc4)C3)C(=O)C2C1` (mixture of isomers) gave a pIC50 at Protein smoothened [1] of 6.36.

With `O=C(Nc1ccccc1-c1ccccc1)N1CCN2C(=O)N(C3Cc4ccccc4C3)C(=O)C2C1` (racemic), the pIC50 on Protein smoothened [1] was 6.06.

What is called pIC50 is the negative decadic logarithm of the IC50, by convention in mol/L. In general, microsomal CLint refers to the rate of metabolic loss divided by the concentration. For orientation: CC50 means the concentration giving 50% cytotoxicity.
